# Reference: patent publication US7300784B2 (priority 2001, dated 2007)
# Values joined by “and” are separate entries in the source; they are usually repeats but may differ in a detail not shown here. Equal entries are not always repeated.
# How the values were obtained:
# [1] = test system: nitrile hydratase of Rhodococcus sp. Cr4; assay type: biochemical
# [2] = test system: Rhodococcus rhodochrous ATCC 332878; assay type: cell-based
# Rhodococcus sp. Cr4 = assay type: cell-based
structure (smiles),measurement,setting,value
[Cl][Ni][Cl] [NiCl2],Relative activity (%),[1],196% and 185% and 171% and 197% and 195% and 184%
same,effect on enzyme activity (words),[1],enhanced
same,enhancement of the enzymatic activity,[1],enhanced twice
same,Relative activity (%),[2],193%
same,Relative activity (%),Rhodococcus sp. Cr4,186%
same,effect on nitrile hydratase activity in resting cell reaction,Rhodococcus sp. Cr4,enhanced
